In patent US9593305B2, “Differentiation of pluripotent stem cells” (Janssen Biotech, Inc., priority 2008, dated 2017):

System: H1 human embryonic stem cells
Assay: MTS assay of cell proliferation during definitive endoderm differentiation (Example 23)
Assay type: cell-based
Conditions: 100 ng/ml growth factor with 8 ng/ml bFGF, with or without Wnt3a
Protocol: Stock cultures of human embryonic stem cells (H1 human embryonic stem cell line) were maintained in an undifferentiated, pluripotent state on reduced growth factor […]™ (BD Biosciences; Cat #356231)-coated dishes in MEF conditioned medium with passage on average every four days. Passage was performed by exposing cell cultures to a solution of 1 mg/ml dispase (Invitrogen, Cat #: 17105-041) for 5 to 7 minutes at 37° C. followed by rinsing the monolayer with MEF conditioned culture medium and gentle scraping to recover cell clusters. Clusters were centrifuged at low speed to collect a cell pellet and remove residual dispase. Cell clusters were split at a 1:3 or 1:4 ratio for routine maintenance culture or a 1:1 ratio for immediate assay. All human embryonic stem cell lines were maintained at passage numbers less than 50 and routinely evaluated for normal karyotypic phenotype and for absence of mycoplasma contamination. […]
At the conclusion of 24, 48, or 72 hours of culture, one set of assay plates was subjected to a MTS assay (Promega; Cat#G3581), following the manufacturer's instructions. In brief, 20 μl of MTS was added to each well, and assay plates were incubated at 37° C., 5% CO2 for four hours prior to taking OD490 readings. […]

Substance | OD490 (MTS) over the three day assay, control treatments
Activin A: recombinant human activin A (PeproTech), TGF-beta family member | incremental increases in OD490
GDF-8: growth factor GDF-8, also known as myostatin, member of the TGF-β family | decrease in OD490 relative to activin A treatment
